Columns and labels:
[1] = tested on: fibronectin matrix assembly; conditions: cited from earlier work
[2] = tested on: plasma fibronectin; test: Proteolytic (thermolysin) digestion of fibronectin aggregates; type: biochemical, human; conditions: 20 μM inducer, 1 μM plasma fibronectin, 5 μg/ml thermolysin 2 hours, SDS-PAGE
Method: The sequences obtained, SSPVVID (SEQ ID No. 12), AVEENQE (SEQ ID No. 13), and ITETIP (SEQ ID No. 14), were located to the end of ^13F3, middle of ^3F3, and the start of ^1F3, respectively for both BBK32/fibronectin and Anastellin/fibronectin. Pre-stained protein standard (New England Biolabs).
BBK32, Anastellin, and plasma fibronectin were dialyzed into thermolysin digestion buffer (25 mM Tris, 0.5 mM EDTA, pH 8, 50 mM NaCl, and 2.5 mM CaCl2). 20 μM BBK32 or 20 μM Anastellin was added to 1 μM plasma fibronectin. Solutions were mixed and aggregates were allowed to form for one hour at room temperature. After one hour incubation, 5 μg/ml thermolysin (Sigma) was added to the BBK32-sFn, the Anastellin-sFn, and to plasma fibronectin. The solutions were incubated at room temperature with end-over-end mixing for 2 hours. Digestion was stopped after two hours with the addition of EDTA to a final concentration of 5 mM. Samples were then run on 4-20% gradient SDS-PAGE gels under non-reducing conditions. […] Excess stain was removed with 40% methanol and bands that were present in BBK32-sFn and Anastellin-sFn, but not in plasma fibronectin lanes, were excised and analyzed by N-terminal sequencing using Edman degradation (Protein Sequencing Division, Tufts University Core Facility, Boston, Mass.).

[3] = tested on: human umbilical vein endothelial cells (HUVECs); test: Endothelial cell proliferation assay; type: cell-based; conditions: 72 hours; for effect on proliferation of endothelial cells (in words): cell counts
Method: Cells were seeded onto tissue culture plates in full media and allowed to adhere for two hours. […] Cells were then incubated for 72 hours at 37° C., 5% CO2. After 72 hours, wells were washed, trypsinized, and counted (three counts/well, three wells/dose) using a hemacytometer.
1×10^4 human umbilical vein endothelial cells (HUVECs) (Cambrex) were seeded into Costar 24 well tissue culture plates in endothelial growth media-2 (EGM-2) (Cambrex) and allowed to adhere for two hours. After two hours, BBK32, Anastellin, and FnbpA peptide D3 were added in a dose dependent manner (triplicate) to the wells suspended in EGM-2. Cells were allowed to incubate for 72 hours at 37° C., 5% CO2. After 72 hours, wells were washed with PBS and cells were trypsinized with 0.5% trypsin/EDTA (Cambrex). Trypsinized cells were collected in microcentrifuge tubes and trypsin/EDTA was neutralized with EGM-2. Cells were counted from each well (three counts/well, three wells/dose) using a hemacytometer.

[4] = tested on: purified plasma fibronectin; test: Fibronectin aggregation assay (O.D.600); type: biochemical, human; conditions: for induction of plasma fibronectin aggregation (in words): 1 μM purified plasma fibronectin, absorbance at 600 nm
Method: BBK32, FnbpA peptide D3, Anastellin, and purified plasma fibronectin were centrifuged at 14,000 rpm for 15 minutes and then filtered through 0.22 μm PES syringe filters (Nalgene, Rochester, N.Y.). Following filtration, BBK32, FnbpA peptide D3, and Anastellin were titrated into 1 μM purified plasma fibronectin in TBS. After the addition of each aliquot, the fibronectin/protein mixture was carefully mixed five times with a 200 μl pipette and optical density at 600 nm was measured using a BioPhotometer (Eppendorf, New York, N.Y.) after 10 seconds.

[5] = tested on: fibronectin matrix of normal human dermal fibroblasts (NHDFs); test: Effects on fibronectin matrix assembled by normal human dermal fibroblasts (immunostaining); type: cell-based; conditions: 5 μM, 20 hours
Method: Cells were treated for 20 hours and then fixed. […] Treated cells were incubated for 20 hours and probed with Alexa Fluor 488-anti-fibronectin, monoclonal antibody IST-1, and monoclonal antibody IST-9. Images were taken using LSM 510 Confocal Microscope. Bar=10 μm.
4×10^4 adult normal human dermal fibroblasts (NHDFs) (Cambrex, East Rutherford, N.J.) were seeded onto glass coverslips in 24 well Costar tissue culture plates in Fibroblast growth media-2 (FGM-2) (Cambrex). Cells were allowed to grow for 48 hours and then BBK32, Anastellin, or FnbpA peptide D3 was added to a final concentration of 5 μM in FGM-2. Treated cells were incubated for 20 hours at 37° C., 5% CO2. After incubation, cells were washed with Dulbecco's PBS (DPBS) (Gibco, Invitrogen, Carlsbad, Calif.) and fixed with 2% paraformaldehyde for 30 minutes at room temperature. Following washing with DPBS, cells were blocked with 1% BSA for one hour at room temperature. Cells were then probed with Alexa Fluor 488-anti-fibronectin, Texas Red anti-His, monoclonal antibodies IST-1 (plasma and cellular fibronectin) and IST-9 (cellular fibronectin) (abcam, Cambridge, UK) or combinations of antibodies at a dilution of 1:3000 for one hour at room temperature. Following extensive washing with DPBS, appropriate fluorescently labeled secondary antibodies (Alexa Fluor 594-goat anti-mouse) (Invitrogen, Carlsbad, Calif.) were added at a dilution of 1:3000 and incubated for one hour at room temperature. After incubation, cells were washed extensively with DPBS and coverslips were mounted using Gel/Mount (biømeda, Foster City, Calif.) onto glass slides and images were taken using a LSM 510 Confocal Microscope (Zeiss).

[6] = target: T1, ^1F3 fibronectin module (Homo sapiens, UniProt P02751); test: ELISA-type binding assay, immobilized 1F3 module
T1 construct: His-tag (N); made in house
Method: Binding to ^1F3 (FIG. 1A), ^1-2F3 (FIG. 1B), and ^3F3 (FIG. 1C) was assessed using ELISA-type assays. F3 modules were immobilized in microtiter wells and blocked with Ovalbumin.
Binding of BBK32 to F3 modules was tested by coating 1 μg of recombinant ^1F3, ^1-2F3, and ^3F3 modules in 50 μl of 50 mM Tris-HCl, 150 mM NaCl, pH 7.5 (TBS) per well in Immulon 4HBX microtiter plates (Dynatech Laboratories, Chantilly, Va.) and incubating overnight at 4° C. The next day, the wells were washed with 200 μl TBS, 0.05% Tween 20, pH 7.4 (TBST) and blocked with 200 μl TBST containing 2% ovalbumin (Sigma, St. Louis, Mo.) for one hour at room temperature. […] Plates were incubated for one hour at room temperature. After washing with TBST, primary antibodies (rabbit IgG anti-BBK32 or rabbit IgG anti-FnbpA) were added to each well at a 0.48 μg/ml. Plates were incubated for one hour at room temperature and then were washed again with TBST.
Following washing, a 1:3000 dilution of HRP-conjugated goat-anti-rabbit antibodies (BioRad, Hercules, Calif.) was added to each well. Plates were incubated for one hour at room temperature and then washed with TBST. […] Absorbance was measured at 450 nm using a Thermo Max microplate reader (Molecular Devices, Sunnyvale, Calif.). Apparent Kds were calculated by assessing maximal half-binding (Y=Bmax·X/(Kd+X)).

[7] = tested on: leukocyte (mononuclear cell) migration across endothelial cell layer; test: Transendothelial migration assay (Transwell); type: cell-based; conditions: IL-4 treated endothelial layer, IL-8 chemoattractant, four hours
Method: To determine if sFn decrease the migration of leukocytes to the infection site, transendothelial migration assays were assessed. In these assays endothelial cells were grown to confluence in Transwell® inserts and were encouraged to form tight junctions using interleukin 4 (IL-4). SFn formation was then induced to form on the surface of the endothelial cell layer using BBK32 (21-354), (21-205) and (153-175). A chemoattractant (IL-8) was added to the bottom chamber of the Transwell setup. Mononuclear cells were added to the upper chamber and permitted to migrate for four hours. Following incubation, cells in the bottom chamber were counted.

[8] = Stability of recombinant protein; type: physicochemical
[9] = tested on: endothelial cells; test: Annexin V apoptosis assay on endothelial cells; type: cell-based; conditions: not shown
[10] = tested on: fibronectin 56 kDa and 45 kDa gelatin binding fragments; test: Far Western blot of thermolysin digest of fibronectin; conditions: 56 kDa fragment vs 45 kDa gelatin binding fragment
From the text: BBK32 binds to the ^1F1-^5F1 N-terminal segment of fibronectin by the tandem beta-zipper mechanism (6-7).

Sequence of purified plasma fibronectin (P02751 32-1265 limits assumed): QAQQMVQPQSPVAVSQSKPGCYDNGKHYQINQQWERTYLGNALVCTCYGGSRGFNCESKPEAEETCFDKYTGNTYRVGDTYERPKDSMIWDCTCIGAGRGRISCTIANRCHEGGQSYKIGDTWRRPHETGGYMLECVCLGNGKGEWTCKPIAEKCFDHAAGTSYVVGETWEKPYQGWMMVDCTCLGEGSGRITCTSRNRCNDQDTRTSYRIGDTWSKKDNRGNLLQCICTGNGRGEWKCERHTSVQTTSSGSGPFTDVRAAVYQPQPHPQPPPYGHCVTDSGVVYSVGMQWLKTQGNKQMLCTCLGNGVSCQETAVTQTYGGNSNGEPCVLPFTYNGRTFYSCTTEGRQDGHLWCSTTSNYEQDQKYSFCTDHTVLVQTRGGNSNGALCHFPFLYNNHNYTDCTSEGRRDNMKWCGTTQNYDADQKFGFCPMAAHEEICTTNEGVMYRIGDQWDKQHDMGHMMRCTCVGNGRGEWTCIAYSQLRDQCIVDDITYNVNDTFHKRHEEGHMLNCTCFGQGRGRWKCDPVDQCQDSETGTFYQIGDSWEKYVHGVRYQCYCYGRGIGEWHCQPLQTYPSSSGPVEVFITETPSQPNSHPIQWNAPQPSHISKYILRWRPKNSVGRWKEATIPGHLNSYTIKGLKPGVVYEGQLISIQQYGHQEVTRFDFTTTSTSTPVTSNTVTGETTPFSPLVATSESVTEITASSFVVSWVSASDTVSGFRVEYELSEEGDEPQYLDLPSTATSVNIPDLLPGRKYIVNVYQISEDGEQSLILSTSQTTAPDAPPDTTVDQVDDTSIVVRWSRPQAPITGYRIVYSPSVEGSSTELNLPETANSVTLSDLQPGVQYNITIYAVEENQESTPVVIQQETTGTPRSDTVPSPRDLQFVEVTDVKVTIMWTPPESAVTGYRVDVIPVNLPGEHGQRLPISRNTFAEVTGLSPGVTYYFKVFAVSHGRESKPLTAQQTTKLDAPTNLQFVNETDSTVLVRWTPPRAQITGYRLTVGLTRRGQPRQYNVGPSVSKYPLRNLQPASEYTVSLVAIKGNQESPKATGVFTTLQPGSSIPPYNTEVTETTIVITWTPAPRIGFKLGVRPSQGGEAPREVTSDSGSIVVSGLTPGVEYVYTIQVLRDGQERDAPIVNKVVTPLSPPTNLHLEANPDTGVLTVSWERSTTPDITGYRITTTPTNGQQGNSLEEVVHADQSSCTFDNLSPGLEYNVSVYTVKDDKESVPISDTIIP
Sequence of plasma fibronectin (P02751 32-1265 limits assumed): as above
T1 sequence (P02751 608-700): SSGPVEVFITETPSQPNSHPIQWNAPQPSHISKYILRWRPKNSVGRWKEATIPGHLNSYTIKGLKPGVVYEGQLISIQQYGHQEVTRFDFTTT

| Molecule | concentration at which matrix assembly is blocked ([1]; high concentrations, 16 hour incubation causes disappearance of pre-existing matrix) | concentration at which fibronectin matrix assembly is promoted ([1]; low concentrations) | thermolysin fragment profile of induced fibronectin aggregates [2] | effect on proliferation of endothelial cells (in words) [3] | induction of plasma fibronectin aggregation (in words) [4] | co-localization with fibronectin in the extracellular matrix [5] | immunostaining with monoclonal antibody IST 9 (EDA epitope of cellular fibronectin) [5] | binding to the ^1F3 module (in words) [6] | inhibition of transendothelial migration by induced sFn [7] | stability of the recombinant protein [8] | potency at inhibiting endothelial cell proliferation relative to Anastellin [3] | Annexin V assays (apoptosis) [9] | fibronectin aggregation on addition of detergent Triton X-100 ([4]; Triton X-100 added, not shown) | relative binding to fibronectin thermolysin fragments [10] |
| --- | --- | --- | --- | --- | --- | --- | --- | --- | --- | --- | --- | --- | --- | --- |
| Anastellin: Recombinant form of the C-terminal two-thirds of fibronectin ^1F3 with C-terminal His-tag; known inducer of superfibronectin | above 20 μM | less than 5 μM | very similar fragment profiles | concentration dependent manner | induced fibronectin aggregation | co-localize with fibronectin | markedly reduced immunostaining with IST 9 |  |  |  |  |  |  |  |
| FnbpA peptide D3: S. aureus fibronectin-binding peptide D3 of MSCRAMM FnbpA, synthesized and purified by HPLC; used as control (GFNKHTEIIEEDTNKDKPSYQFGGHNSVDFEEDTLPK) |  |  |  | only marginally affected the proliferation of cells | not the D3 protein induced fibronectin aggregation | co-localize with fibronectin | no different from the staining observed for the no treatment control | did not to bind the ^1F3 module |  |  |  |  |  |  |
| IDLTIDSDLRPKSSLQGIAGSNS (recombinant peptide from residues 153-175 of BBK32) [BBK32(153-175), BBK32 peptide, residues 153-175, containing the motifs similar to anastellin] |  |  |  | inhibits human umbilical vein endothelial cell proliferation in a concentration dependent manner | induce aggregation of plasma fibronectin in a concentration dependent manner |  | indicates conformational changes in fibronectin in matrices produced by fibroblasts |  | as effective at inhibiting transendothelial migration as the full length BBK32 protein |  |  |  |  |  |
| BBK32(21-354): Recombinant intact BBK32 protein, residues 21-354, including the C-terminal globular domain (SEQ ID NO: 5) (protein, recombinant peptide from residues 21-354 of BBK32) DLFIRYEMKEESPGLFDKGNSILETSEESIKKPIKKPMNKKGKGKIARKKGKSKVSRKEPYIHSLKRDSANKSNFLQKNVILEEESLKTELLKEQSETRKEKIQKQQDEYKGMTQGSLNSLSGESGELEEPIESNEIDLTIDSDLRPKSSLQGIAGSNSISYTDEIEEEDYDQYYLDEYDEEDEEEIRLSNRYQSYLEGVKYNVDSAIQTITKIYNTYTLFSTKLTQMYSTRLDNFAKAKAKEEAAKFTKEDLEKNFKTLLNYIQVSVKTAANFVYINDTHAKRKLENIEAEIKTLIAKKIEQSNLYEAYKAIVTSILLMRDSLKEVQGIIDKNGVWY |  |  |  |  | induced aggregation of fibronectin at lower concentrations than BBK32(21-205) |  |  |  |  | unstable and susceptible to degradation |  |  |  |  |
| BBK32(21-205): Recombinant fibronectin-binding segment, residues 21-205, of Borrelia burgdorferi lipoprotein BBK32 (SEQ ID NO: 6) (protein, recombinant peptide from residues 21-205 of BBK32) DLFIRYEMKEESPGLFDKGNSILETSEESIKKPIKKPMNKKGKGKIARKKGKSKVSRKEPYIHSLKRDSANKSNFLQKNVILEEESLKTELLKEQSETRKEKIQKQQDEYKGMTQGSLNSLSGESGELEEPIESNEIDLTIDSDLRPKSSLQGIAGSNSISYTDEIEEEDYDQYYLDEYDEEDEEEIRL |  |  | very similar fragment profiles | inhibited the proliferation of endothelial cells in a concentration dependent manner | induced fibronectin aggregation | co-localize with fibronectin | reduction of immunostaining with IST 9 |  |  |  | reproducibly more potent at inhibiting endothelial cell proliferation than Anastellin | negative | inhibited fibronectin aggregation | binds more strongly to the 56 kDa fragment than to the 45 kDa gelatin binding fragment |
